In patent US20250277208A1, “Method of Peptide Library Construction and Peptides Thereof” (Alcamena Stem Cell Therapeutics, LLC, priority 2024, published 2025):
“And” between values parts separate entries of the source, which are not always exact repeats. Identical values can stand only once. Square brackets hold non-standard residues; d marks the D form. Ends that are not written are not given here. Phe(4-F) = N[C@@H](Cc1ccc(F)cc1)C(=O)O; Gla = N[C@@H](CC(C(=O)O)C(=O)O)C(=O)O; Cha = N[C@@H](CC1CCCCC1)C(=O)O

target: T1, IL-6 (Homo sapiens, UniProt P05231); assay: Biacore surface plasmon resonance binding of peptides to immobilised IL-6; conditions: not given
T1 construct: purchased R&D Systems BT7270B
Excerpt: Two DNA fragments were amplified from a synthetic fragment of the IL-6R. The 5′ fragment was amplified with forward primer and a mixture of 432 reverse primers, each containing an overhang of 6 codons. The 3′ fragment was amplified with a mixture of 432 forward primers, also containing overhangs of six degenerate codons and the reverse primer. Either the first or the second nucleotide of each codon was replaced with a degenerate base. Following PCR amplification, DNA fragments were phosphorylated and ligated leading to various sequence rearrangements shown at the bottom of the FIG. 3. Four hundred thirty-two forward and reverse oligos with an overhang of 6 codons from the IL-6R binding domain were used for PCR. A degenerate nucleotide was inserted at the first or second position of each codon. When ligated, these sequences generated a library of 1×10^13 different DNA sequences. The library of DNA sequences was taken through eight rounds of mRNA Display generating a peptide library. Eighteen of the most abundant peptides in the peptide library were synthesized in a linear form and tested for binding to IL-6 using Biacore. One of the peptides (#9) (“Peptide 9”) from the peptide library, with the sequence of […] The twelve non-terminal residues represent the PepFusion library-derived DNA sequences, while N-terminal serine and C-terminal glycine come from the flanking linkers and were kept as a precaution, in case linker sequences contributed to peptide interaction with its target.
Binding reactions were performed in HBS-P/2% DMSO buffer (10 mM Hepes, pH 7.4, 150 mM NaCl, 0.05% P-20, 2% DMSO), which was filtered through […] filters and degassed before use. Biotinylated recombinant human IL-6 (IL-6-Biotin) was bound to the surface of a Biacore SA sensor chip of a Biacore T200 surface plasmon resonance unit as follows. The streptavidin surface of the chip (flow cells 1 and 2) was activated by injecting 20 μl of 1 M NaCl/50 mM NaOH at 20 μl/min, in 3 pulses. Biotinylated Recombinant Human IL6 was diluted with HBS-P buffer and an aliquot of 100 μl (2 micrograms/ml) was injected into flow cell 2 at 5 microliters/min to yield a signal of 1400 response units (RU) (10 microliters were injected). Any remaining activated residues on the streptavidin surface of flow cells 1 and 2 were blocked with 30 microliters 500 nM free Biotin.
(§1) Affinity scouting assay was performed at a flow rate of 30 microliters/min at 25° C. The analyte (60 microliter aliquots of peptides, at concentrations of 20 μM in HBS-P/2% DMSO buffer) was injected into flow cells 1 and 2 and the association reaction was recorded. The surface was then washed with HBS-P/2% DMSO for 3 min and the dissociation of the analyte from the bound IL6 was followed over time. The surfaces of the flow cells were regenerated with 30 microliters of 10 mM NaOH, followed 50 microliters of HBS-P/2% DMSO buffer.
as §1, with “Kinetics analysis of binding was performed” for “Affinity scouting assay was performed”, “concentrations of 0, 1.25 μM, 2.5 μM, 5 μM, 10 μM and 20 μM” for “concentrations of 20 μM”, “DMSO buffer. Sensorgrams were analyzed using BIAeveluation 3.2.1 software (Cytiva). Values from the reference flow cell were subtracted to obtain the values for specific binding. Data were globally fitted to the Langmuir model for a 1:1 mass transfer binding.” for “DMSO buffer.”

| Molecule | binding to IL-6, in words |
| --- | --- |
| FD(Cha)DIHLL(4F)LPTEWEK(Cla)KNEE (FD[Cha]DIHLL[Phe(4-F)]LPTEWEK[Gla]KNEE) [PN-2519, reference compound] | no activity |
| FD(hL)DIHLLELPTEWEKDKNEE [PN-1974(2), peptide PN-1974 with termini protected by acetylation and amidation, reference compound] | eliminated its activity |
| INTLLSEINSILLDIISLL [RA07, published control peptide described in Kobayashi et al., Mol Biotechnol 2011, reference compound] | did not bind |
| SVKDLQHGLRHVVG [Peptide C1, control peptide homologous to peptide 9, devoid of any mutations; two unmutated fragments of IL-6R, reference compound] | no binding |
| SVRDLLRRMCHCVG [Peptide 67] | no binding |

same assay, conditions: KD (nM) P < 0.05, Table 1; N and C termini not protected; cells printed in μM

| Molecule | Kd |
| --- | --- |
| GNSRDLLRRMCHIVG [Peptide 42, GNSRDLLRRMCHIVG] | > 10000 nM |

same assay, conditions: Table 1; N and C termini not protected; cells printed in μM; read-out: KD (nM) P < 0.05

| Molecule | Kd |
| --- | --- |
| LEIRDLLRRMCHIVG [Peptide 26, LEIRDLLRRMCHIVG] | > 10000 nM |
| LGHRDLLRRMCHIVG [Peptide 29, LGHRDLLRRMCHIVG] | > 10000 nM |
| SNYTLLRRMCHIVG [Peptide 36, SNYTLLRRMCHIVG] | > 10000 nM |
| SVHIHLRRMCHIVG [Peptide 34, SVHIHLRRMCHIVG] | > 10000 nM |
| SVRDLHKMMCHIVG [Peptide 25, SVRDLHKMMCHIVG] | > 10000 nM |
| SVRDLLHGRCHIVG [Peptide 40, SVRDLLHGRCHIVG] | > 10000 nM |
| SVRDLLNRICHIVG [Peptide 21, SVRDLLNRICHIVG] | > 10000 nM |
| SVRDLLRMFCHIVG [Peptide 23, SVRDLLRMFCHIVG] | > 10000 nM |
| SVRDLLRRMCHPRLG [Peptide 46, SVRDLLRRMCHPRLG] | > 10000 nM |
| SVRDLPRIMCHIVG [Peptide 31, SVRDLPRIMCHIVG] | > 10000 nM |
| SVRDNFHRMCHIVG [Peptide 30, SVRDNFHRMCHIVG] | > 10000 nM |
| SVRDPHNRMCHIVG [Peptide 22, SVRDPHNRMCHIVG] | > 10000 nM |
| SVRIYLRRMCHIVG [Peptide 20, SVRIYLRRMCHIVG] | > 10000 nM |
| SVSIHLRRMCHIVG [Peptide 32, SVSIHLRRMCHIVG] | > 10000 nM |

same assay, conditions: Table 1; termini not protected

| Molecule | binding affinity compared with parent peptide 9, in words |
| --- | --- |
| CVYRDLLRRMCHIVG [Peptide 35] | completely lost binding affinity |
| H-ATIRDLLRRMCHIVG-OH [Peptide 38, ATIRDLLRRMCHIVG] | improved binding affinity |
| H-ETIRDLLRRMCHIVG-OH [Peptide 24, ETIRDLLRRMCHIVG] | improved binding affinity |
| H-FAFRDLLRRMCHIVG-OH [Peptide 45, FAFRDLLRRMCHIVG] | improved binding affinity |
| H-SVRDLIRMMCHIVG-OH [Peptide 33, SVRDLIRMMCHIVG] | improved binding affinity |
| H-SVRDLLRRMKVCVG-OH [Peptide 27, SVRDLLRRMKVCVG] | improved binding affinity |
| NERRDLLRRMCHIVG [Peptide 41, NERRDLLRRMCHIVG] | reduced binding affinity |
| SVRDLQKOMCHIVG (SVRDLQKQMCHIVG; not fully specified) [Peptide 44] | completely lost binding affinity |

same assay, conditions: Table 2; N terminus acetylated, C terminus amidated; cells printed in μM; read-out: KD (nM) P < 0.05

| Molecule | Kd |
| --- | --- |
| Ac-ATIRDLIRMMKHIVG-NH2 [Peptide 96, ATIRDLIRMMKHIVG] | > 10000 nM |
| Ac-ATIRDLLRMMKHIVG-NH2 [Peptide 95, ATIRDLLRMMKHIVG] | > 10000 nM |
| Ac-ATIRDLLRRMKHIVG-NH2 [Peptide 94, ATIRDLLRRMKHIVG] | > 10000 nM |
| Ac-FSFRDLIRMMCHIVG-NH2 [Peptide 74, FSFRDLIRMMCHIVG] | > 10000 nM |
| Ac-FSFRDLLRMMKHIVG-NH2 [Peptide 92, FSFRDLLRMMKHIVG] | > 10000 nM |
| Ac-FSFRDLLRRMKHIVG-NH2 [Peptide 91, FSFRDLLRRMKHIVG] | > 10000 nM |
| Ac-FSVRDLLRMMKHIVG-NH2 [Peptide 86, FSVRDLLRMMKHIVG] | > 10000 nM |
| Ac-FSVRDLLRRMKHIVG-NH2 [Peptide 85, FSVRDLLRRMKHIVG] | > 10000 nM |
| Ac-SFRDLLRMMKHIVG-NH2 [Peptide 89, SFRDLLRMMKHIVG] | > 10000 nM |
| Ac-SFRDLLRRMKHIVG-NH2 [Peptide 88, SFRDLLRRMKHIVG] | > 10000 nM |
| Ac-TIRDLIRMMKHIVG-NH2 [Peptide 99, TIRDLIRMMKHIVG] | > 10000 nM |
| Ac-TIRDLLRMMKHIVG-NH2 [Peptide 98, TIRDLLRMMKHIVG] | > 10000 nM |
| Ac-TIRDLLRRMKHIVG-NH2 [Peptide 97, TIRDLLRRMKHIVG] | > 10000 nM |

same assay, conditions: Table 2; termini protected

| Molecule | affinity compared with the parent sequence, in words |
| --- | --- |
| Ac-FAFRDLLRMMCHIVG-NH2 [Peptide 75, FAFRDLLRMMCHIVG] | not improved |
| Ac-FSFRDLLRMMCHIVG-NH2 [Peptide 80, FSFRDLLRMMCHIVG] | not improved |
| Ac-SVRDLIRRMCHIVG-NH2 [Peptide 68, SVRDLIRRMCHIVG] | lowered affinity |
| Ac-SVRDLLRMMCHIVG-NH2 [Peptide 69, SVRDLLRMMCHIVG] | no significant effect |
| Ac-SVRDLLRRMCVIVG-NH2 [Peptide 66, SVRDLLRRMCVIVG] | slightly better affinity |
| Ac-SVRDLLRRMKHIVG-NH2 [Peptide 65, SVRDLLRRMKHIVG] | slightly better affinity |
| Ac-TIRDLLRRMCHIVG-NH2 [Peptide 71, TIRDLLRRMCHIVG] | greatly improved |

same assay, conditions: termini not protected; read-out: KD

| Molecule | Kd |
| --- | --- |
| H-SVRDLLRRMCHIVG-OH [Peptide 9, SVRDLLRRMCHIVG] | 2500 nM |

same assay, conditions: termini protected (acetylated, amidated); read-out: KD

| Molecule | Kd |
| --- | --- |
| Ac-ATIRDLIRMMCHIVG-NH2 [Peptide 51, ATIRDLIRMMCHIVG] | ~100 nM and 128 nM |
| Ac-ATIRDLIRMMKVCVG-NH2 [Peptide 82, ATIRDLIRMMKVCVG] | 108 nM |
| Ac-ATIRDLIRMMKVIVG-NH2 [Peptide 83, ATIRDLIRMMKVIVG] | 563 nM |
| Ac-FAFRDLIRMMCHIVG-NH2 [Peptide 58, FAFRDLIRMMCHIVG] | ~100 nM and 71 nM |
| Ac-FAFRDLIRMMCVIVG-NH2 [Peptide 78, FAFRDLIRMMCVIVG] | ≤ 1500 nM |
| Ac-FAFRDLIRMMKHIVG-NH2 [Peptide 77, FAFRDLIRMMKHIVG] | ≤ 1500 nM and 405 nM |
| Ac-FAFRDLIRMMKVCVG-NH2 [Peptide 79, FAFRDLIRMMKVCVG] | 247 nM |
| Ac-FAFRDLIRMMKVIVG-NH2 [Peptide 76, FAFRDLIRMMKVIVG] | ≤ 1500 nM |
| Ac-FSFRDLLRRMCHIVG-NH2 [Peptide 72, FSFRDLLRRMCHIVG] | 27 nM |

target: T2, Biotinylated recombinant human IL-6 (human, UniProt P05231 30-212, biotinylated (sites not given)); assay: SPR (Biacore), IL-6 on chip; conditions: not given
T2 construct: In the cell bioassay IL-6 (0.5 nM) was used in solution; also called Interleukin-6; IL-6-Biotin

| Molecule | Kd |
| --- | --- |
| Ac-TVRDLLRRMCHIVG-NH2 [Peptide 55] | 0.224 µM |
| Ac-SIRDLLRRMCHIVG-NH2 [Peptide 56] | 0.305 µM |
| Ac-AVRDLLRRMCHIVG-NH2 [Peptide 62] | 0.519 µM |
| Ac-SFRDLLRRMCHIVG-NH2 [Peptide 63] | 0.162 µM |
